Reference: ChEMBL document CHEMBL1123275, “Synthesis and renal vasodilator activity of some dopamine agonist 1-aryl-2,3,4,5-tetrahydro-1H-3-benzazepine-7,8-diols: halogen and methyl analogues of fenoldopam” (J Med Chem, 1986)
pEC50, pIC50: −log10 of the molar value. Active and inactive are the calls of the source. No cut-off for these calls is given here.

Assays:
Canis familiaris [1] = test: cardiovascular activity was determined in anesthetized dogs.(Mean arterial blood pressure); type: functional; conditions: Canis lupus familiaris
Canis familiaris [2] = test: cardiovascular activity was determined in anesthetized dogs.(Heart rate ); type: functional; conditions: Canis lupus familiaris
Canis familiaris [3] = species on record: Canis familiaris; test: Maximum percent decrease in renal vascular resistance.; type: functional, Canis lupus familiaris
Canis familiaris [4] = test: Renal vasodilator activity was determined in anesthetized dogs; type: functional; conditions: Canis lupus familiaris
Rattus norvegicus [5] = species on record: Rattus norvegicus; test: In vitro dose stimulating D-1 adenylate cyclase in rat caudate nuclei; type: functional, organism-based
Canis familiaris [6] = species on record: Canis familiaris; test: Effective dose against Iliac vascular resistance (IVR); type: functional; conditions: Canis lupus familiaris
Rattus norvegicus [7] = test: Compound was tested for its CNS activity in vivo by determining drug-induced rotation in rats with 6-hydroxydopamine induced lesions of the SNx rats after ip administration measured as dose-turns; 10-no significant activity; type: functional, organism-based; conditions: Central nervous system
Rattus norvegicus [8] = test: Compound was tested for its CNS activity in vivo in SNx rats with 6-hydroxydopamine induced lesions after ip administration; type: functional, Central nervous system
Rattus norvegicus [9] = species on record: Rattus norvegicus; test: In vitro inhibition of dopamine stimulated production of [14C]cAMP from [14C]-ATP in homogenates of rat caudate; No significant activity at 10 uM; type: functional
Rattus norvegicus [10] = species on record: Rattus norvegicus; test: (§1) In vitro dose stimulating D-1 adenylate cyclase in rat caudate nuclei; No significant activity at 10 uM; type: functional
Canis familiaris [11] = test: Renal vasodilator activity in anesthetized dogs; no significant activity at 1000 ug/kg/stat; type: functional, organism-based; conditions: Canis lupus familiaris
Rattus norvegicus [12] = test: Compound was tested for its CNS activity in vivo in SNx rats with 6-hydroxydopamine induced lesions after ic administration; type: functional, Central nervous system
Rattus norvegicus [13] = species on record: Rattus norvegicus; test: In vitro inhibition of dopamine stimulated production of [14C]-cAMP from [14C]-ATP in homogenates of rat caudate; type: functional
Rattus norvegicus [14] = species on record: Rattus norvegicus; test: In vitro dose stimulating D-1 adenylate cyclase in rat caudate nuclei at 10 uM; type: functional
Rattus norvegicus [15] = species on record: Rattus norvegicus; test: In vitro inhibition of dopamine stimulated production of [14C]cAMP from [14C]-ATP in homogenates of rat caudate at the concentration of 10 uM; type: functional
Rattus norvegicus [16] = species on record: Rattus norvegicus; test: as §1; type: functional; remark: listed apart in the source
Canis familiaris [17] = test: Cardiovascular activity was determined in anesthetized dogs.(Mean arterial blood pressure); type: functional; conditions: Canis lupus familiaris, Artery
Rattus norvegicus [18] = test: Compound was tested for its CNS activity in vivo in SNx rats with 6-hydroxydopamine induced lesions after ip administration measured as dose-turns; 10-No significant activity; type: functional, organism-based; conditions: Central nervous system
Canis familiaris [19] = test: Renal vasodilator activity in anesthetized dogs; I= no significant activity at 300 ug/kg/min; type: functional, organism-based; conditions: Canis lupus familiaris
Rattus norvegicus [20] = species on record: Rattus norvegicus; test: In vitro inhibition of dopamine stimulated production of [14C]cAMP from [14C]-ATP in homogenates of rat caudate at the concentration of 1 uM; type: functional
Canis familiaris [21] = test: Cardiovascular activity was determined in anesthetized dogs.(Heart rate ); type: functional; conditions: Canis lupus familiaris
Rattus norvegicus [22] = species on record: Rattus norvegicus; test: In vitro dose stimulating D-1 adenylate cyclase in rat caudate nuclei as % dopamine response at 10 uM; type: functional

| Compound | ED20 (Canis familiaris [1]) | ED20 (Canis familiaris [2]) | Decrease (Canis familiaris [3]) | ED15 (Canis familiaris [4]) | pEC50 (Rattus norvegicus [5]) | ED30 (Canis familiaris [6]) | RD500 (Rattus norvegicus [8]) | further results |
| --- | --- | --- | --- | --- | --- | --- | --- | --- |
| CS(=O)(=O)O.Oc1ccc(C2CNCCc3c2cc(O)c(O)c3Cl)cc1 (stereo unspecified) [FENOLDOPAM MESYLATE] | 1.82 mg/kg | 1.82 mg/kg | 59% | 0.0003 mg/kg | 7.32 | 1.82 mg/kg | 0.5 ug rat-1 | RD500 (Rattus norvegicus [7]): inactive |
| Cl.Oc1ccc(C2CNCCc3c(Cl)c(O)c(O)c(Cl)c32)cc1 (stereo unspecified) | 6.2 mg/kg | 6.2 mg/kg | 41% | 0.62 mg/kg | 5.59 | 6.2 mg/kg | – | RD500 (Rattus norvegicus [7]): inactive |
| Cc1c(O)c(O)c(C)c2c1CCNCC2c1ccc(O)cc1 (stereo unspecified) | – | – | – | – | – | – | – | inhibition (Rattus norvegicus [9]): inactive; Stimulation (Rattus norvegicus [10]): inactive |
| Br.Oc1ccc(C2CNCCc3c2cc(O)c(O)c3F)cc1 (stereo unspecified) | 6.06 mg/kg | 0.00581 mg/kg | 28% | 0.00083 mg/kg | 6.70 | 6.06 mg/kg | – | – |
| CN1CCc2cc(O)c(O)cc2C(c2ccccc2)C1.Cl (stereo unspecified) | – | – | – | – | – | – | 0.1 mg/kg | Activity (Canis familiaris [11]): inactive; RD500 (Rattus norvegicus [12]): 0.06 ug rat-1; pIC50 (Rattus norvegicus [13]): 6.20; Stimulation (Rattus norvegicus [14]): 20% |
| Br.Oc1cccc(C2CNCCc3c2cc(O)c(O)c3Cl)c1 (stereo unspecified) | 2.12 mg/kg | 0.36 mg/kg | 49% | 0.00035 mg/kg | – | 0.0119 mg/kg | – | RD500 (Rattus norvegicus [7]): inactive |
| Cc1c(O)c(O)c(Cl)c2c1CCNCC2c1ccc(O)cc1.Cl (stereo unspecified) | 6.09 mg/kg | 6.09 mg/kg | 42% | 0.03 mg/kg | – | 6.09 mg/kg | – | inhibition (Rattus norvegicus [15]): 29%; Stimulation (Rattus norvegicus [10]): inactive |
| Br.Cc1c(O)c(O)cc2c1CCNCC2c1ccccc1 (stereo unspecified) | – | – | – | – | 7.00 | – | 1.28 mg/kg | – |
| Cc1c(O)c(O)c(Cl)c2c1C(c1ccc(O)cc1)CNCC2 (stereo unspecified) | – | – | – | – | – | – | – | inhibition (Rattus norvegicus [9]): inactive; Stimulation (Rattus norvegicus [10]): inactive |
| Oc1ccc(C2CNCCc3c2cc(O)c(O)c3C(F)(F)F)cc1 (stereo unspecified) | – | – | – | – | – | – | – | RD500 (Rattus norvegicus [7]): inactive |
| Br.Oc1ccc(C2CNCCc3c2cc(O)c(O)c3Br)cc1 (stereo unspecified) | 30.4 mg/kg | 30.4 mg/kg | 56% | 0.005 mg/kg | 6.82 | 0.07 mg/kg | – | RD500 (Rattus norvegicus [7]): inactive |
| Br.Oc1ccc(C2CNCCc3c(F)c(O)c(O)c(F)c32)cc1 (stereo unspecified) | – | – | – | – | – | – | – | inhibition (Rattus norvegicus [9]): inactive; EC50 (Rattus norvegicus [16]): Not Active |
| NCCc1ccc(O)c(O)c1 [DOPAMINE] | – | 0.378 mg/kg | 43% | 0.0035 mg/kg | – | 0.151 mg/kg | – | RD500 (Rattus norvegicus [12]): 0.1 ug rat-1; ED20 (Canis familiaris [17]): 0.378 mg/kg |
| Oc1ccc(C2CNCCc3cc(O)c(O)cc32)cc1 (stereo unspecified) | – | – | – | – | 6.70 | – | – | RD500 (Rattus norvegicus [18]): inactive |
| Br.Oc1cc2c(c(Br)c1O)CCNCC2c1ccccc1 (stereo unspecified) | 6.08 mg/kg | 6.08 mg/kg | 42% | 0.009 mg/kg | 7.00 | 6.08 mg/kg | 0.34 mg/kg | – |
| Br.Cc1c(O)c(O)cc2c1CCN(C)CC2c1ccccc1 (stereo unspecified) | – | – | – | – | – | – | 0.05 mg/kg | pIC50 (Rattus norvegicus [13]): 6.36; Activity (Canis familiaris [19]): inactive; Stimulation (Rattus norvegicus [14]): 20% |
| Br.Cc1c(O)c(O)cc2c1C(c1ccc(O)cc1)CNCC2 (stereo unspecified) | – | – | – | – | – | – | – | inhibition (Rattus norvegicus [9]): inactive; EC50 (Rattus norvegicus [16]): Not Active |
| CS(=O)(=O)O.Cc1c(O)c(O)cc2c1CCNCC2c1ccc(O)cc1 (stereo unspecified) | 6.06 mg/kg | 6.06 mg/kg | 41% | 0.0028 mg/kg | – | 6.06 mg/kg | – | inhibition (Rattus norvegicus [15]): 50%; Stimulation (Rattus norvegicus [14]): 30% |
| CN1CCc2c(cc(O)c(O)c2Cl)C(c2ccc(O)cc2)C1 (stereo unspecified) | – | – | – | – | 4.66 | – | – | pIC50 (Rattus norvegicus [13]): 5.85 |
| CN1CCc2c(cc(O)c(O)c2Cl)C(c2ccccc2)C1.Cl (stereo unspecified) | – | – | – | – | – | – | 0.03 mg/kg | pIC50 (Rattus norvegicus [13]): 6.22; Stimulation (Rattus norvegicus [14]): 30% |
| Br.CN1CCc2c(cc(O)c(O)c2Br)C(c2ccccc2)C1 (stereo unspecified) | – | – | – | – | – | – | 0.015 mg/kg | pIC50 (Rattus norvegicus [13]): 6.49; Stimulation (Rattus norvegicus [14]): 30% |
| Br.Oc1ccc(C2CNCCc3cc(O)c(O)c(Cl)c32)cc1 (stereo unspecified) | – | – | – | – | – | – | – | inhibition (Rattus norvegicus [9]): inactive; EC50 (Rattus norvegicus [16]): Not Active |
| Cl.Oc1c(O)c(Cl)c2c(c1Cl)CCNCC2c1ccccc1 (stereo unspecified) | 6.08 mg/kg | 6.08 mg/kg | 59% | 0.01 mg/kg | 5.90 | 6.08 mg/kg | – | inhibition (Rattus norvegicus [9]): inactive |
| Br.Oc1cc2c(c(Cl)c1O)CCNCC2c1ccccc1 (stereo unspecified) | 6.07 mg/kg | 0.378 mg/kg | 39% | 0.0035 mg/kg | – | 2.92 mg/kg | 0.3 mg/kg | RD500 (Rattus norvegicus [12]): 0.22 ug rat-1 |
| Br.Oc1cc2c(c(F)c1O)CCNCC2c1ccccc1 (stereo unspecified) | – | – | 36% | 0.009 mg/kg | 7.40 | 54 mg/kg | – | inhibition (Rattus norvegicus [15]): 17%; inhibition (Rattus norvegicus [20]): 31%; ED20 (Canis familiaris [21]): 54 mg/kg; ED20 (Canis familiaris [17]): 54 mg/kg |
| Br.Oc1ccc(C2CNCCc3c2cc(O)c(O)c3I)cc1 (stereo unspecified) | 6.06 mg/kg | 6.06 mg/kg | 41% | 0.0042 mg/kg | – | 6.06 mg/kg | – | inhibition (Rattus norvegicus [15]): 55%; Stimulation (Rattus norvegicus [22]): 36% |
| Br.CN1CCc2c(cc(O)c(O)c2F)C(c2ccc(O)cc2)C1 (stereo unspecified) | – | – | – | – | – | – | – | inhibition (Rattus norvegicus [15]): 55%; Stimulation (Rattus norvegicus [14]): 36% |
| Oc1cc2c(cc1O)C(c1ccccc1)CNCC2 (stereo unspecified) [SKF-38393] | 1.72 mg/kg | 1.05 mg/kg | 18% | 0.035 mg/kg | – | 0.735 mg/kg | 0.7 mg/kg | RD500 (Rattus norvegicus [12]): 0.18 ug rat-1 |
